Measured values reported in patent US6559166B1, “Phenylsulphonyl derivatives as 5-HT receptor ligands” (Merck Sharp & Dohme Ltd., priority 1999, dated 2003).

Key:
[1] = molecular target: human dopamine D2 receptor (Homo sapiens, UniProt P14416); details: cited from earlier work
Chain of human dopamine D2 receptor (P14416 whole entry): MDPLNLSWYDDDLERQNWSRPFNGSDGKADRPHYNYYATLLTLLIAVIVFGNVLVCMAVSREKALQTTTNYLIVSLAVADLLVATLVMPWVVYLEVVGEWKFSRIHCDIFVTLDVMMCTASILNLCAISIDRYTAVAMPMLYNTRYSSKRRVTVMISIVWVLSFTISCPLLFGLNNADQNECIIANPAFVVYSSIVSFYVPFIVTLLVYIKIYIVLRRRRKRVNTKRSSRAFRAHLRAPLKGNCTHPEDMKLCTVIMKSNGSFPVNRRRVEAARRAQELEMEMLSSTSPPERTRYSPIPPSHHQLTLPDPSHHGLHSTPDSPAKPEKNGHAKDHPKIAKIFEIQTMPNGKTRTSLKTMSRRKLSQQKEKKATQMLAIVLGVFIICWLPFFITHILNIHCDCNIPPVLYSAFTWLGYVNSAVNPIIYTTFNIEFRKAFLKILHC

SMILES | melting point [°C] | activity at the human dopamine D2 receptor [1]
O=S(=O)(c1ccc(Cn2cnnn2)cc1)C1CCN(CCc2ccc(F)cc2F)CC1 [Example 12, 1-[2-(2,4-Difluorophenyl)ethyl]-4-[4-(tetrazol-1-ylmethyl)phenylsulphonyl]piperidine] | 168 to 169 | 
COc1cccc(C(O)C2CCN(CCc3ccc(F)cc3)CC2)c1OC (stereo not drawn) [MDL-100,907, (+)-α-(2,3-dimethoxyphenyl)-1-[2-(4-fluorophenyl)ethyl]-4-piperidinemethanol] |  | essentially devoid of activity
